According to article PMC3101270 (Biochemistry, 2011):

Legend:
PfOPRT [1] = biological target: T1, PfOPRT (Plasmodium falciparum, UniProt Q8N0R1); test: ultrafiltration with 3H/[…]-labelled ligand; format: binding
T1 sequence (Q8N0R1 1-281): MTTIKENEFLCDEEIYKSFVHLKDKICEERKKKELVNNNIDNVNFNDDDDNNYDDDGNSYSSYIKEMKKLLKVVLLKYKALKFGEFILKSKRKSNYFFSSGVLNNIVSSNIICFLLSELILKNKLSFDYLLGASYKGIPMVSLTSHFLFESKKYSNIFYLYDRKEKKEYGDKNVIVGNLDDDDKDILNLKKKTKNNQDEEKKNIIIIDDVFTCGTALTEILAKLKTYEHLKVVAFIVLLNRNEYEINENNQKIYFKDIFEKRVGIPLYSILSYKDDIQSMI

HsOPRT [2] = biological target: T2, HsOPRT (Homo sapiens, UniProt P11172); test: ultrafiltration with 3H/[…]-labelled ligand; format: binding
T2 sequence (P11172 2-214 limits assumed): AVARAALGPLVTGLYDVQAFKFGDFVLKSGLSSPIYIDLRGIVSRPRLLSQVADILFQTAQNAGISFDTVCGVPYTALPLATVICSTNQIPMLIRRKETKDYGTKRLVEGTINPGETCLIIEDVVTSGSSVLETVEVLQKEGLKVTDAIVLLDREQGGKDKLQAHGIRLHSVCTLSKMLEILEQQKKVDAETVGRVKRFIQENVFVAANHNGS

HsOPRT [3] = biological target: T2, HsOPRT; test: enzyme inhibition; format: biochemical
PfOPRT [4] = biological target: T1, PfOPRT; test: enzyme inhibition; format: biochemical

Row | SMILES | Kd (PfOPRT [1]) [µM] | Kd (HsOPRT [2]) [µM] | Ki (HsOPRT [3]) [µM] | Ki (PfOPRT [4]) [µM]
1 | O=C(O)c1cc(=O)[nH]c(=O)n1[C@@H]1O[C@H](COP(=O)(O)O)[C@@H](O)[C@H]1O [OMP] | 3.1 ± 1.6 | 2.5 ± 1.2 | – | –
2 | O=S(=O)(O)O [sulfate] | – | – | 17600 ± 2800 | 3100 ± 300
